From the supplement of paper PMC10307832

What follows are cell lines tested with CN1CCC(CC1)OC2=CC(=C(C=C2)NC3=NC=C4C(=N3)N(C(=O)N4C)C5CCCC5)OC [AZ3146] + NC(=O)Nc1cc(-c2cccc(F)c2)sc1C(=O)N[C@H]1CCCNC1 [AZD7762] (partner 0.2 µM) (assay: relative viability (nuclei count vs DMSO), 5 days (fraction); higher = more cells survive). Settings: first compound 0.08 µM.
Method in brief: (§1)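 Lung cancer cell lines were pin-tool dosed in 1536-well plates on the day after seeding, with either a lone drug or a fixed anchor-drug dose plus five library-drug doses (not always all listed) in √10 steps. Nuclei were counted on 4× images after 5 days. Relative viability is the ratio of treated-well to vehicle-well nuclei counts, with each value a median of duplicate plates.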

Cell Line	relative viability
NCI-H441	1.08
NCI-H1915	0.673
NCI-H2087	1.18
HCC-366	0.212
NCI-H1793	0.259
RERF-LC-KJ	0.879
EMC-BAC-2	0.94
LCLC-97TM1	0.311
NCI-H1651	0.277
NCI-H2170	0.85
ABC-1	0.756
NCI-H727	0.642

Same assay, conditions: first compound 0.253 µM

Cell Line	relative viability
NCI-H441	1.31
NCI-H1915	0.714
NCI-H2087	1.36
HCC-366	0.288
NCI-H1793	0.397
RERF-LC-KJ	0.61
EMC-BAC-2	1.09
LCLC-97TM1	0.339
NCI-H1651	0.382
NCI-H2170	0.889
ABC-1	0.717
NCI-H727	0.575

Same assay, conditions: first compound 0.8 µM

Cell Line	relative viability
NCI-H441	1.14
NCI-H1915	0.75
NCI-H2087	1.22
HCC-366	0.263
NCI-H1793	0.259
RERF-LC-KJ	0.883
EMC-BAC-2	1.25
LCLC-97TM1	0.262
NCI-H1651	0.351
NCI-H2170	0.871
ABC-1	0.829
NCI-H727	0.562

Same assay, conditions: first compound 2.53 µM

Cell Line	relative viability
NCI-H441	1.09
NCI-H1915	0.729
NCI-H2087	1.38
HCC-366	0.203
NCI-H1793	0.229
RERF-LC-KJ	0.976
EMC-BAC-2	0.998
LCLC-97TM1	0.381
NCI-H1651	0.398
NCI-H2170	0.814
ABC-1	0.893
NCI-H727	0.568

Same assay, conditions: first compound 8 µM

Cell Line	relative viability
NCI-H441	0.949
NCI-H1915	0.745
NCI-H2087	1.16
HCC-366	0.112
NCI-H1793	0.178
RERF-LC-KJ	0.972
EMC-BAC-2	1.07
LCLC-97TM1	0.273
NCI-H1651	0.385
NCI-H2170	0.713
ABC-1	1
NCI-H727	0.57

What follows are cell lines tested with CN1CCC(CC1)OC2=CC(=C(C=C2)NC3=NC=C4C(=N3)N(C(=O)N4C)C5CCCC5)OC [AZ3146] + CS(=O)(=O)N1CCN(Cc2cc3nc(-c4cccc5[nH]ncc45)nc(N4CCOCC4)c3s2)CC1 [Pictilisib] (partner 1 µM) in the same assay as above. Settings: first compound 0.08 µM.
Method in brief: as §1

Cell Line	relative viability
NCI-H441	0.46
NCI-H1915	0.748
NCI-H2087	1.14
HCC-366	0.233
NCI-H1793	0.298
RERF-LC-KJ	0.513
EMC-BAC-2	0.524
NCI-H1651	0.556
NCI-H2170	0.297
ABC-1	0.566
NCI-H727	0.324

Same assay, conditions: first compound 0.253 µM

Cell Line	relative viability
NCI-H441	0.532
NCI-H1915	0.911
NCI-H2087	0.926
HCC-366	0.133
NCI-H1793	0.376
RERF-LC-KJ	0.53
EMC-BAC-2	0.56
NCI-H1651	0.668
NCI-H2170	0.315
ABC-1	0.866
NCI-H727	0.431

Same assay, conditions: first compound 0.8 µM

Cell Line	relative viability
NCI-H441	0.467
NCI-H1915	1.11
NCI-H2087	0.669
HCC-366	0.138
NCI-H1793	0.278
RERF-LC-KJ	0.549
EMC-BAC-2	0.564
LCLC-97TM1	0.18
NCI-H1651	0.576
NCI-H2170	0.327
ABC-1	0.687
NCI-H727	0.328

Same assay, conditions: first compound 2.53 µM

Cell Line	relative viability
NCI-H441	0.537
NCI-H1915	1
NCI-H2087	0.968
HCC-366	0.146
NCI-H1793	0.469
RERF-LC-KJ	0.696
EMC-BAC-2	0.607
LCLC-97TM1	0.227
NCI-H1651	0.475
NCI-H2170	0.297
ABC-1	0.878
NCI-H727	0.605

Same assay, conditions: first compound 8 µM

Cell Line	relative viability
NCI-H441	0.503
NCI-H1915	1.07
NCI-H2087	0.847
HCC-366	0.191
NCI-H1793	0.261
RERF-LC-KJ	0.516
EMC-BAC-2	0.597
LCLC-97TM1	0.181
NCI-H1651	0.489
NCI-H2170	0.243
ABC-1	0.723
NCI-H727	0.316

Each cell line was assayed with CCOC(=O)CCNc1cc(N2CCc3ccccc3CC2)nc(-c2ccccn2)n1 [GSK-J4] + O=C(c1cc(Cc2n[nH]c(=O)c3ccccc23)ccc1F)N1CCN(C(=O)C2CC2)CC1 [Olaparib] (partner 8 µM) in the same assay as above. Settings: first compound 0.5 µM.
Method in brief: as §1

Cell Line	relative viability
NCI-H441	0.605
NCI-H1915	0.279
NCI-H2087	0.525
HCC-366	0.362
NCI-H1793	0.751
RERF-LC-KJ	0.867
EMC-BAC-2	0.403
LCLC-97TM1	0.272
NCI-H1651	0.178
NCI-H2170	0.533
ABC-1	0.981
NCI-H727	0.597

Same assay, conditions: first compound 1.581 µM

Cell Line	relative viability
NCI-H441	0.487
NCI-H1915	0.229
NCI-H2087	0.535
HCC-366	0.308
NCI-H1793	0.634
RERF-LC-KJ	0.928
EMC-BAC-2	0.461
LCLC-97TM1	0.373
NCI-H1651	0.158
NCI-H2170	0.538
ABC-1	0.929
NCI-H727	0.596

Same assay, conditions: first compound 5 µM

Cell Line	relative viability
NCI-H441	0.406
NCI-H2087	0.439
NCI-H1793	0.482
RERF-LC-KJ	0.867
EMC-BAC-2	0.407
LCLC-97TM1	0.364
NCI-H1651	0.184
NCI-H2170	0.652
ABC-1	0.605
NCI-H727	0.581

Same assay, conditions: first compound 15.81 µM

Cell Line	relative viability
NCI-H441	0.515
NCI-H1915	0.224
NCI-H2087	0.542
HCC-366	0.37
NCI-H1793	0.201
RERF-LC-KJ	0.814
EMC-BAC-2	0.444
LCLC-97TM1	0.293
NCI-H1651	0.182
NCI-H2170	0.536
ABC-1	0.651
NCI-H727	0.718

Same assay, conditions: first compound 50 µM

Cell Line	relative viability
NCI-H441	0.422
NCI-H1915	0.257
NCI-H2087	0.371
HCC-366	0.285
NCI-H1793	0.145
RERF-LC-KJ	0.484
EMC-BAC-2	0.391
LCLC-97TM1	0.196
NCI-H1651	0.18
NCI-H2170	0.391
ABC-1	0.488
NCI-H727	0.472

What follows are cell lines tested with CN1CCC(CC1)OC2=CC(=C(C=C2)NC3=NC=C4C(=N3)N(C(=O)N4C)C5CCCC5)OC [AZ3146] + Nc1ncn([C@H]2C[C@H](O)[C@@H](CO)O2)c(=O)n1 [Decitabine] (partner 2 µM) in the same assay as above. Settings: first compound 0.08 µM.
Method in brief: as §1

Cell Line	relative viability
NCI-H441	0.203
NCI-H1915	0.267
NCI-H2087	0.227
HCC-366	0.342
NCI-H1793	0.252
RERF-LC-KJ	0.69
LCLC-97TM1	0.209
NCI-H1651	0.532
NCI-H2170	0.441
ABC-1	1.02
NCI-H727	0.806

Same assay, conditions: first compound 0.253 µM

Cell Line	relative viability
NCI-H441	0.284
NCI-H1915	0.27
NCI-H2087	0.328
HCC-366	0.39
NCI-H1793	0.523
RERF-LC-KJ	0.704
LCLC-97TM1	0.254
NCI-H1651	0.634
NCI-H2170	0.477
ABC-1	1.04
NCI-H727	0.913

Same assay, conditions: first compound 0.8 µM

Cell Line	relative viability
NCI-H441	0.259
NCI-H1915	0.266
NCI-H2087	0.289
HCC-366	0.296
NCI-H1793	0.456
RERF-LC-KJ	0.731
EMC-BAC-2	1.09
LCLC-97TM1	0.225
NCI-H1651	0.549
NCI-H2170	0.461
ABC-1	1.33
NCI-H727	0.714

Same assay, conditions: first compound 2.53 µM

Cell Line	relative viability
NCI-H441	0.254
NCI-H1915	0.251
NCI-H2087	0.315
HCC-366	0.352
NCI-H1793	0.283
RERF-LC-KJ	0.73
EMC-BAC-2	1.02
LCLC-97TM1	0.222
NCI-H1651	0.543
NCI-H2170	0.421
ABC-1	1.05
NCI-H727	0.766

Same assay, conditions: first compound 8 µM

Cell Line	relative viability
NCI-H441	0.237
NCI-H1915	0.264
NCI-H2087	0.202
HCC-366	0.321
NCI-H1793	0.488
RERF-LC-KJ	0.381
EMC-BAC-2	0.907
LCLC-97TM1	0.248
NCI-H1651	0.617
NCI-H2170	0.466
ABC-1	1.09
NCI-H727	0.783
